Data: ChEMBL document CHEMBL1255477, “In vitro properties of BAL30072, a novel siderophore sulfactam with activity against multiresistant gram-negative bacilli” (Antimicrob Agents Chemother, 2010)
Converted amounts (≈) assume the structure as drawn. The source made the active and inactive calls. The rule behind the calls is not given here.

Key:
[1] = system: Stenotrophomonas maltophilia; experiment: Antimicrobial activity against Stenotrophomonas maltophilia 1AC736 assessed as number of passages required for MIC to rise above 4 times original MIC; format: functional
Burkholderia sp. = experiment: Antimicrobial activity against Burkholderia sp. by broth dilution method; format: functional
Pseudomonas aeruginosa [2] = experiment: Antimicrobial activity against Pseudomonas aeruginosa by broth dilution method; format: functional
Acinetobacter baumannii = experiment: Antimicrobial activity against Acinetobacter baumannii HPA74510 assessed as number of passages required for MIC to rise above 4 times original MIC; format: functional
Providencia rettgeri = experiment: Antimicrobial activity against Providencia rettgeri by broth dilution method; format: functional
Citrobacter freundii = experiment: Antimicrobial activity against Citrobacter freundii by broth dilution method; format: functional
Escherichia coli = experiment: Antimicrobial activity against Escherichia coli by broth dilution method; format: functional
Pseudomonas aeruginosa [3] = experiment: Antimicrobial activity against Pseudomonas aeruginosa 527 assessed as number of passages required for MIC to rise above 4 times original MIC; format: functional
Serratia marcescens = experiment: Antimicrobial activity against Serratia marcescens by broth dilution method; format: functional
Klebsiella pneumoniae [4] = experiment: Antimicrobial activity against Klebsiella pneumoniae by broth dilution method; format: functional
Acinetobacter junii = experiment: Antimicrobial activity against Acinetobacter junii 15218 assessed as number of passages required for MIC to rise above 4 times original MIC; format: functional
Providencia stuartii = experiment: Antimicrobial activity against Providencia stuartii by broth dilution method; format: functional
[5] = system: Stenotrophomonas maltophilia; experiment: Antimicrobial activity against Stenotrophomonas maltophilia by broth dilution method; format: functional
Proteus mirabilis = experiment: Antimicrobial activity against Proteus mirabilis by broth dilution method; format: functional
Klebsiella pneumoniae [6] = experiment: Antimicrobial activity against Klebsiella pneumoniae 1338665 assessed as number of passages required for MIC to rise above 4 times original MIC; format: functional
Klebsiella aerogenes = experiment: Antimicrobial activity against Enterobacter aerogenes by broth dilution method; format: functional
Proteus penneri = experiment: Antimicrobial activity against Proteus penneri by broth dilution method; format: functional
Pseudomonas aeruginosa [7] = experiment: Antimicrobial activity against Pseudomonas aeruginosa BA assessed as number of passages required for MIC to rise above 4 times original MIC; format: functional
Proteus vulgaris = experiment: Antimicrobial activity against Proteus vulgaris by broth dilution method; format: functional
Klebsiella oxytoca = experiment: Antimicrobial activity against Klebsiella oxytoca by broth dilution method; format: functional
Enterobacteriaceae = experiment: Antimicrobial activity against Enterobacteriaceae by broth dilution method; format: functional
Acinetobacter sp. = experiment: Antimicrobial activity against Acinetobacter sp. by broth dilution method; format: functional
Pseudomonas aeruginosa [8] = experiment: Antimicrobial activity against oprD protein deficient Pseudomonas aeruginosa C2 by broth dilution method; format: functional
Pseudomonas aeruginosa [9] = experiment: Antimicrobial activity against mexAB-oprM, mexCD-oprJ, mexEF-oprN, mexJK, mexXY, opmH and pscC gene deficient Pseudomonas aeruginosa PAO750 by broth dilution method; format: functional
Enterobacter cloacae = experiment: Antimicrobial activity against Enterobacter cloacae by broth dilution method; format: functional
Pseudomonas aeruginosa [10] = experiment: Antimicrobial activity against Pseudomonas aeruginosa B4 by broth dilution method; format: functional
Pseudomonas aeruginosa [11] = experiment: Antimicrobial activity against Pseudomonas aeruginosa BA by broth dilution method; format: functional; conditions: Pseudomonas aeruginosa, BA; read-out: MIC
Pseudomonas aeruginosa [12] = experiment: Antimicrobial activity against mexAB-oprM protein and mexCD-oprJ deficient Pseudomonas aeruginosa PAO253 overexpressing MexEF-OprN gene by broth dilution method; format: functional
Pseudomonas aeruginosa [13] = experiment: Antimicrobial activity against mexAB-oprM protein and mexCD-oprJ deficient Pseudomonas aeruginosa PAO238 by broth dilution method; format: functional
Pseudomonas aeruginosa [14] = experiment: Antimicrobial activity against Pseudomonas aeruginosa BA(C1-106) selected after 25 ug/ml of compound exposure by broth dilution method; format: functional
Pseudomonas aeruginosa [15] = experiment: Antimicrobial activity against mexAB-oprM protein and mexZ deficient Pseudomonas aeruginosa PAO267 by broth dilution method; format: functional
Pseudomonas aeruginosa [16] = experiment: microbe, parasite or virus in culture; conditions: PAO1
Description: Antimicrobial activity against Pseudomonas aeruginosa PAO1 by broth dilution method

Pseudomonas aeruginosa [17] = experiment: Antimicrobial activity against Pseudomonas aeruginosa BA(C2-107) selected after 25 ug/ml of compound exposure by broth dilution method; format: functional

CO/N=C(\C(=O)N[C@@H]1C(=O)N2C(C(=O)[O-])=C(C[N+]3(C)CCCC3)CS[C@H]12)c1csc(N)n1
Activity [1]: 1 passages | MIC50 (Burkholderia sp.): 8 mg/L (≈ 16.6 µM) | MIC90 (Burkholderia sp.): 16 mg/L (≈ 33.3 µM) | MIC50 (Pseudomonas aeruginosa [2]): 16 mg/L (≈ 33.3 µM) | MIC90 (Pseudomonas aeruginosa [2]): 32 mg/L (≈ 66.6 µM) | Activity (Acinetobacter baumannii): inactive | MIC50 (Providencia rettgeri): ≤ 0.06 mg/L | MIC90 (Providencia rettgeri): > 32 mg/L | MIC50 (Citrobacter freundii): 1 mg/L (≈ 2.08 µM) | MIC90 (Citrobacter freundii): 4 mg/L (≈ 8.32 µM) | MIC50 (Escherichia coli): 8 mg/L (≈ 16.6 µM) | MIC90 (Escherichia coli): > 32 mg/L | Activity (Pseudomonas aeruginosa [3]): 1 passages | MIC50 (Serratia marcescens): 1 mg/L (≈ 2.08 µM) | MIC90 (Serratia marcescens): 2 mg/L (≈ 4.16 µM) | MIC50 (Klebsiella pneumoniae [4]): 4 mg/L (≈ 8.32 µM) | MIC90 (Klebsiella pneumoniae [4]): > 32 mg/L | Activity (Acinetobacter junii): 14 passages | MIC50 (Providencia stuartii): ≤ 0.06 mg/L | MIC90 (Providencia stuartii): > 32 mg/L | MIC50 [5]: 16 mg/L (≈ 33.3 µM) | MIC90 [5]: > 32 mg/L | MIC50 (Proteus mirabilis): 0.125 mg/L (≈ 0.26 µM) | MIC90 (Proteus mirabilis): 1 mg/L (≈ 2.08 µM) | Activity (Klebsiella pneumoniae [6]): inactive | MIC90 (Klebsiella aerogenes): 16 mg/L (≈ 33.3 µM) | MIC50 (Proteus penneri): 0.125 mg/L (≈ 0.26 µM) | MIC90 (Proteus penneri): 1 mg/L (≈ 2.08 µM) | Activity (Pseudomonas aeruginosa [7]): 2 passages | MIC50 (Proteus vulgaris): 0.125 mg/L (≈ 0.26 µM) | MIC90 (Proteus vulgaris): 1 mg/L (≈ 2.08 µM) | MIC50 (Klebsiella oxytoca): 2 mg/L (≈ 4.16 µM) | MIC90 (Klebsiella oxytoca): 4 mg/L (≈ 8.32 µM) | MIC50 (Enterobacteriaceae): 4 mg/L (≈ 8.32 µM) | MIC50 (Acinetobacter sp.): 32 mg/L (≈ 66.6 µM) | MIC90 (Acinetobacter sp.): > 32 mg/L

CC(C)(O/N=C(\C(=O)N[C@@H]1C(=O)N2C(C(=O)[O-])=C(C[n+]3ccccc3)CS[C@H]12)c1csc(N)n1)C(=O)O [CEFTAZIDIME]
MIC (Pseudomonas aeruginosa [8]): 2 mg/L (≈ 3.66 µM) | MIC50 (Burkholderia sp.): 2 mg/L (≈ 3.66 µM) | MIC90 (Burkholderia sp.): 8 mg/L (≈ 14.6 µM) | MIC50 (Pseudomonas aeruginosa [2]): 16 mg/L (≈ 29.3 µM) | MIC90 (Pseudomonas aeruginosa [2]): > 32 mg/L | MIC (Pseudomonas aeruginosa [9]): 0.5 mg/L (≈ 0.915 µM) | MIC50 (Providencia rettgeri): 1 mg/L (≈ 1.83 µM) | MIC90 (Providencia rettgeri): > 32 mg/L | MIC50 (Enterobacter cloacae): 16 mg/L (≈ 29.3 µM) | MIC90 (Enterobacter cloacae): > 32 mg/L | MIC (Citrobacter freundii): > 32 mg/L | MIC50 (Citrobacter freundii): > 32 mg/L | MIC90 (Citrobacter freundii): > 32 mg/L | MIC50 (Escherichia coli): 32 mg/L (≈ 58.5 µM) | MIC90 (Escherichia coli): > 32 mg/L | MIC50 (Serratia marcescens): 1 mg/L (≈ 1.83 µM) | MIC90 (Serratia marcescens): 2 mg/L (≈ 3.66 µM) | MIC50 (Klebsiella pneumoniae [4]): > 32 mg/L | MIC90 (Klebsiella pneumoniae [4]): > 32 mg/L | MIC50 (Providencia stuartii): 1 mg/L (≈ 1.83 µM) | MIC90 (Providencia stuartii): > 32 mg/L | MIC (Pseudomonas aeruginosa [10]): 4 mg/L (≈ 7.32 µM) | MIC50 [5]: 2 mg/L (≈ 3.66 µM) | MIC90 [5]: 16 mg/L (≈ 29.3 µM) | MIC (Pseudomonas aeruginosa [11]): 2 mg/L (≈ 3.66 µM) | MIC (Pseudomonas aeruginosa [12]): 0.25 mg/L (≈ 0.457 µM) | MIC (Pseudomonas aeruginosa [13]): 0.5 mg/L (≈ 0.915 µM) | MIC (Pseudomonas aeruginosa [14]): 16 mg/L (≈ 29.3 µM) | MIC (Proteus mirabilis): ≤ 0.06 mg/L | MIC50 (Proteus mirabilis): ≤ 0.06 mg/L | MIC90 (Proteus mirabilis): 0.25 mg/L (≈ 0.457 µM) | MIC50 (Klebsiella aerogenes): > 32 mg/L | MIC90 (Klebsiella aerogenes): > 32 mg/L | MIC (Proteus penneri): ≤ 0.06 mg/L | MIC50 (Proteus penneri): ≤ 0.06 mg/L | MIC90 (Proteus penneri): 0.25 mg/L (≈ 0.457 µM) | MIC (Pseudomonas aeruginosa [15]): 0.5 mg/L (≈ 0.915 µM) | MIC (Proteus vulgaris): ≤ 0.06 mg/L | MIC50 (Proteus vulgaris): ≤ 0.06 mg/L | MIC90 (Proteus vulgaris): 0.25 mg/L (≈ 0.457 µM) | MIC50 (Klebsiella oxytoca): 1 mg/L (≈ 1.83 µM) | MIC90 (Klebsiella oxytoca): 8 mg/L (≈ 14.6 µM) | MIC (Pseudomonas aeruginosa [16]): 1 mg/L (≈ 1.83 µM) | MIC50 (Acinetobacter sp.): 32 mg/L (≈ 58.5 µM) | MIC90 (Acinetobacter sp.): > 32 mg/L | MIC (Pseudomonas aeruginosa [17]): 2 mg/L (≈ 3.66 µM)
